Laboratory results: paper PMC8746705, “Comparison of Experimental Strategies to Study L-Type Amino Acid Transporter 1 (LAT1) Utilization by Ligands” (Molecules, 2021)

Tests used:
[1] = system: brain amino acids L-Leu, L-Trp, L-Tyr and L-Tyr metabolites; assay: Brain amino acid homeostasis after i.p. dose to mice; assay type: in vivo; details: mouse brain, single i.p. dose 25 µmol/kg; for Brain 3,4-dihydroxyphenylacetic acid levels: compound 2: 2 and 4 h compared to first time point (10 min)
Method: Adult male mice weighing 25 ± 5 g were supplied by Envigo (Venray, Netherlands). Mice were housed in stainless steel cages on a 12 h light (07:00–19:00) and 12 h dark (19:00–07:00) cycle at an ambient temperature of 22 ± 1 °C with a relative humidity of 50–60%. All experiments were carried out during the light phase. Tap water and food pellets (Lactamin R36; Lactamin AB, Södertälje, Sweden) were available ad libitum. A dose of 25 µmol/kg of compound 1, 2, or 8–11 was given as a bolus injection (i.p.) to mice. The mice were decapitated at selected time points between (10–360 min) and brain tissues were collected for sample preparation to be analyzed by liquid chromatography-mass spectrometric (LC-MS/MS) analysis.
Brain samples were prepared similarly as described above by homogenizing the pre-weigh tissues with ultrapure water (1:3). Subsequently, 100 µL of the homogenates was taken, and the proteins were precipitated with 300 µL of ACN containing the internal standard (labetalol).
Samples were vortexed and centrifuged at 10,000× g at 4 °C for 10 min. 200 µL of supernatant was mixed with 100 µL of ultrapure water and injected to LC-MS/MS equipment described above. The amounts of three known LAT1-utilizing amino acids, L-Leu, L-Tyr, and L-Trp, and two L-Tyr metabolites, namely p-hydroxyphenylacetate and 3,4-dihydroxyphenylacetic acid, were quantified with a method described earlier. […] Data were acquired using the Agilent MassHunter Workstation Acquisition software (Data Acquisition for Triple Quadrupole Mass Spectrometer, version B.03.01) and processed and analyzed with Quantitative Analysis (B.04.00) software. The lower limit of quantification (LLOQ) for the amino acids in tissue samples was 0.1 nM for L-Leu, L-Tyr, and L-Trp and 1 nM for p-hydroxyphenylacetate and 3,4-dihydroxyphenylacetic acid. […] The concentrations of the amino acids and their metabolites were calculated from the standard curve that was prepared by spiking known amounts of compounds to ACN including the selected internal standard.

LAT1 = assay: Quantitative expression of LAT1 on the BV2 plasma membrane (LC-MS proteomics); assay type: cell-based, mouse; details: BV2 cells incubated 24 h; normalized to Na+/K+ATPase; compared to untreated control
Method: The protein expression levels of LAT1, in the plasma membrane fractions of BV2 cells were quantified using multiplexed MRM analysis according to the protocol described by Uchida et al.. First, the crude membrane fractions were isolated from three distinct sets of cell culture plates using Membrane Protein Extraction Kit (BioVision Incorporated, Milpitas, CA, USA) according to the manufacturer’s instructions. The protein content for each fraction was measured by Bio-Rad Protein Assay, based on the Bradford dye-binding method (EnVision, Perkin Elmer, Inc., Waltham, MA, USA). A total amount of 50 µg protein from each fraction was solubilized/denatured in 7 M guanidine hydrochloride, 0.5 M Tris-HCl and 10 mM EDTA-Na. The proteins were then reduced by dithiothreitol (1:50, w/w) and S-carboxymethylated by iodoacetamide (1:20, w/w). The alkylated proteins were precipitated by methanol/chloroform/water (4:1:3) and centrifuged at 18,000× g for 5 min at 4 °C. The pellet was resuspended in 6 M urea and mixed for 10 min at room temperature before the dilution with 0.1 M Tris-HCl (pH 8.5) to a final concentration of 1.2 M urea, and dissolved completely by intermittent sonication (Branson 3510, Danbury, CT, USA). The dissolved proteins were first digested with LysC (1/100, w/w) and 0.05% ProteaseMax (Promega Biotech AB, Nacka, Sweden) for 3 h at room temperature. Then, the samples were spiked with 10 µL (30 fmol) of the labelled peptides for absolute quantification (JPT Peptide Technologies GmbH, Berlin, Germany) (Table S2). The samples were incubated with (1/100, w/w) TPCK-Trypsin (Promega Biotech AB, Nacka, Sweden) for 18 h at 37 °C. The tryptic digestion was then quenched by adding 40 µL of 5% formic acid. The samples were then centrifuged at 18,000× g for 5 min at 4 °C, and the supernatants were transferred to vials for analysis.
The digested peptides were analyzed using an ultra-performance liquid chromatography system coupled with a triple quadrupole mass spectrometer with a heated electrospray ionization source in the positive mode (UPLC 1290 and MSD 6495, Agilent Technologies, Santa Clara, CA, USA). A total amount of 20 µL of the digested peptides (10 µg) was separated using AdvanceBio Peptide Map 2.1 × 250 mm, 2.7 μm column (Agilent Technologies, Santa Clara, CA, USA) and LC eluents of 0.1% formic acid in water (A) and acetonitrile (B). The peptides were eluted following a constant flow rate of 0.3 mL/min and a gradient of 2–7% B for 2 min, followed by 7–30% B for 48 min, 30–45% B for 3 min, and 45–80% B for 2.5 min before re-equilibrating the column again for 4.5 min. LAT1 was quantified based on the ratio between the light and heavy standard peptides, as described previously (Table S2). Data was acquired using Agilent MassHunter Workstation Acquisition (Agilent Technologies, Data Acquisition for Triple Quadrupole, version B.03.01) and processed by using Skyline software (version 20.1). The results were normalized to a housekeeping protein Na+/K+ATPase and expressed as fmol/µg of the total amount of protein in the samples.

Brain p-hydroxyphenylacetate levels ([1]; after 30 min of the bolus injection compared to other time points)	Brain 3,4-dihydroxyphenylacetic acid levels [1]	SMILES	LAT1 expression on the plasma membrane (LAT1)
significantly lower	–	NC(Cc1cccc(C(=O)Oc2ccc(-c3ccc(-c4ccc5c(c4)COC5=O)s3)cc2)c1)C(=O)O (centres unmarked) [Compound 1]	–
–	significant reduction	C[C@H](C(=O)Nc1cccc(C[C@H](N)C(=O)O)c1)c1cccc(C(=O)c2ccccc2)c1 [Compound 2]	downregulated LAT1 expression

Second part, the molecule before the results:

SMILES	Brain p-hydroxyphenylacetate levels ([1]; after 30 min of the bolus injection compared to other time points)	Brain 3,4-dihydroxyphenylacetic acid levels [1]	LAT1 expression on the plasma membrane (LAT1)
COc1cc(C=CC(=O)NCc2cccc(CC(N)C(=O)O)c2)ccc1O (centres unmarked) [Compound 5]	–	–	downregulated LAT1 expression
N[C@@H](Cc1cccc(NC(=O)c2ccccc2O)c1)C(=O)O [Compound 8]	–	Not detected at all	did not have any effect on LAT1 expression
C[C@H](C(=O)Nc1cccc(C[C@H](N)C(=O)O)c1)c1ccc(-c2ccccc2)c(F)c1 [Compound 9]	–	–	did not have any effect on LAT1 expression
C[C@H](C(=O)Oc1cccc(C[C@H](N)C(=O)O)c1)c1ccc(-c2ccccc2)c(F)c1 [Compound 12]	–	–	did not have any effect on LAT1 expression
